Biological target: T1, human adrenergic-α2A receptor (Homo sapiens, UniProt P08913)
T1 construct: expressed in transfected cells; host or cells: CHO cells, stably transfected; membrane preparation
T1 sequence (P08913 1-465): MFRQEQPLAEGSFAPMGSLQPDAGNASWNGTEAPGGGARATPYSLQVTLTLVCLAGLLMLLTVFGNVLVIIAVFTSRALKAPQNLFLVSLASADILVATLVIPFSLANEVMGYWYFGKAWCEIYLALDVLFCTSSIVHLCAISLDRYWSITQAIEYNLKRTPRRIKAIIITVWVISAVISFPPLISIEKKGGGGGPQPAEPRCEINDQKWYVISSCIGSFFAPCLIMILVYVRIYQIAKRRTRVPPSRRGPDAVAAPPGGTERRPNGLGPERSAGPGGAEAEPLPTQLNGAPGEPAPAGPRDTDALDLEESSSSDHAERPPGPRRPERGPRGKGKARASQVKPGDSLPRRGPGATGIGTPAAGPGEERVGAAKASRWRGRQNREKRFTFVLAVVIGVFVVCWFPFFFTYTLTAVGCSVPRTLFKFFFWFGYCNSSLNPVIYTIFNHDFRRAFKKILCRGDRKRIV
Experiment: Radioligand binding experiment for hα2A-adrenergic receptor ([3H]raulwolscine)
Conditions: [3H]raulwolscine 1 nM, 60 minutes at 25° C.; read-out: h-α2A pIC50 (converted)
Method: (§1) The interaction of the compounds of Formula (I) with α2C-adrenoceptor receptors was assessed in in vitro radioligand binding experiments. In general, a low concentration of a radioligand with a high binding affinity for a particular receptor or transporter is incubated with a sample of a tissue preparation enriched in a particular receptor or transporter or with a preparation of cells expressing cloned human receptors in a buffered medium. During the incubation, the radioligand binds to the receptor or transporter. When equilibrium of binding is reached, the receptor bound radioactivity is separated from the non-bound radioactivity, and the receptor- or transporter-bound activity is counted. The interaction of the test compounds with the receptor is assessed in competition binding experiments. Various concentrations of the test compound are added to the incubation mixture containing the receptor- or transporter preparation and the radioligand. The test compound in proportion to its binding affinity and its concentration inhibits binding of the radioligand. The radioligand used for […] receptor binding was [^3H]-raulwolscine.
(§2) CHO cells, stabile transfected with human adrenergic-α2A, -α2B or α2C receptor cDNA, were cultured in Dulbecco's Modified Eagle's Medium (DMEM)/Nutrient mixture Ham's F12 (ratio 1:1)(Gibco, Gent-Belgium) supplemented with 10% heat inactivated fetal calf serum (Life Technologies, Merelbeke-Belgium) and antibiotics (100 IU/ml penicillin G, 100 μg/ml streptomycin sulphate, 110 μg/ml pyruvic acid and 100 μg/ml L-glutamine). One day before collection, cells were induced with 5 mM sodiumbutyrate. Upon 80-90% of confluence, cells were scraped in phosphate buffered saline without Ca^2+ and Mg^2+ and collected by centrifugation at 1500×g for 10 minutes. The cells were homogenised in Tris-HCl 50 mM using an Ultraturrax homogenizer and centrifuged for 10 minutes at 23,500×g. The pellet was washed once by resuspension and rehomogenization and the final pellet was resuspended in Tris-HCl, divided in 1 ml aliquots and stored at −70° C.
(§3) Membranes were thawed and re-homogenized in incubation buffer (glycylglycine 25 mM, pH 8.0). In a total volume of 500 μl, 2-10 μg protein was incubated with [^3H]raulwolscine (NET-722) (New England Nuclear, USA) (1 nM final concentration) with or without competitor for 60 minutes at 25° C. followed by rapid filtration over GF/B filter using a Filtermate196 harvester (Packard, Meriden, Conn.). Filters were rinsed extensively with ice-cold rinsing buffer (Tris-HCl 50 mM pH 7.4). Filter-bound radioactivity was determined by scintillation counting in a Topcount (Packard, Meriden, Conn.) and results were expressed as counts per minute (cpm). Non-specific binding was determined in the presence of 1 μM oxymetazoline for hα2A- and hα2B receptors and 1 μM spiroxatrine for hα2C receptors.
(§4) Data from assays in the presence of compound were calculated as a percentage of total binding measured in the absence of test compound. Inhibition curves, plotting percent of total binding versus the log value of the concentration of the test compound, were automatically generated, and sigmoidal inhibition curves were fitted using non-linear regression. The pIC50 values of test compounds were derived from individual curves.

| SMILES | IC50 |
| --- | --- |
| O=C1c2ccccc2C(=O)N1CC#CCn1ccnc(NC2CCN(Cc3ccc4ccccc4n3)CC2)c1=O [9-18] | 2000 nM |
| COc1ccc(Cn2c(-c3cccc(CN4CCC(O)CC4)c3)c(Cl)nc(NC3CCN(Cc4ccc5ccccc5c4)CC3)c2=O)cc1 [8-10] | 158 nM |
| O=C(Cn1ccnc(NC2CCN(Cc3ccc4ccccc4c3)CC2)c1=O)N1CCN(Cc2ccccc2)CC1 [2-06] | 398 nM |
| NCc1ccc(Cn2ccnc(N3CCN(Cc4cccc5ccccc45)CC3)c2=O)cc1 [9-23] | 398 nM |
| CCCNCc1ccc(-n2ccnc(NC3CCN(Cc4ccc5ccccc5c4)CC3)c2=O)cc1 [1-06] | 251 nM |
| Cn1ccnc1CN1CCc2ccc(-n3ccnc(NC4CCN(Cc5ccc6ccccc6c5)CC4)c3=O)cc2C1 [6-15] | 100 nM |
| COc1ccc(Cn2c(-c3cccc(CN4CCCCC4)c3)c(Cl)nc(NC3CCN(Cc4ccc5ccccc5c4)CC3)c2=O)cc1 [8-09] | 100 nM |
| CCCCN(Cc1ccccc1)C(=O)Cn1ccnc(NC2CCN(Cc3ccc4ccccc4c3)CC2)c1=O [1-18] | 200 nM |
| CC(C)(C)OC(=O)NCc1ccc(Cn2ccnc(N3CCN(Cc4cccc5ccccc45)CC3)c2=O)cc1 [9-25] | 631 nM |
| CCCC(=O)Nc1cccc(-n2ccnc(NC3CCN(Cc4ccc5ccccc5c4)CC3)c2=O)c1 [1-23] | 39.8 nM |
| CC(C)(C)OC(=O)NCCCn1ccnc(NC2CCN(Cc3ccc4ccccc4c3)CC2)c1=O [1-32] | 200 nM |
| O=C(CCn1ccnc(NC2CCN(Cc3ccc4ncccc4c3)CC2)c1=O)c1ccccc1 [9-05] | 1580 nM |
| O=c1c(NC2CCN(Cc3ccc4ccccc4c3)CC2)nccn1-c1ccc2[nH]ccc2c1 [6-02] | 126 nM |
| COCCN(C)Cc1ccc(-n2ccnc(NC3CCN(Cc4ccc5ccccc5c4)CC3)c2=O)cc1 [1-21] | 251 nM |
| O=C(Cn1ccnc(NC2CCN(Cc3ccc4ccccc4c3)CC2)c1=O)NCC(c1ccccc1)c1ccccc1 [1-19] | 398 nM |
| COC(=O)CN(C)Cc1ccc(-n2ccnc(NC3CCN(Cc4ccc5ccccc5c4)CC3)c2=O)cc1 [1-36] | 501 nM |

Biological target: T2, human adrenergic-α2C receptor (Homo sapiens, UniProt P18825)
T2 construct: expressed in transfected cells; host or cells: CHO cells, stably transfected; membrane preparation
T2 sequence (P18825 1-462): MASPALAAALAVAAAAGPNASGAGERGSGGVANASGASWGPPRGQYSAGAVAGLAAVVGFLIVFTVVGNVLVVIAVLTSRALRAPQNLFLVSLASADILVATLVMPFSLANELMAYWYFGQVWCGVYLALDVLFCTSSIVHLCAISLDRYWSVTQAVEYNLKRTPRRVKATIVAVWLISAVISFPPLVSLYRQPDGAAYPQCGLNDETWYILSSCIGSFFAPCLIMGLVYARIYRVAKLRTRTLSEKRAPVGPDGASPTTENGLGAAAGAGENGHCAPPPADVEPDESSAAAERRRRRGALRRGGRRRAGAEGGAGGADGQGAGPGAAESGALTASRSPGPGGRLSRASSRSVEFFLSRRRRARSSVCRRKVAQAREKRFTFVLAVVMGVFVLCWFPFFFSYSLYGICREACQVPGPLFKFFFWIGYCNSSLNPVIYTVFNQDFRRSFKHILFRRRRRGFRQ
Experiment: Radioligand binding experiment for hα2C-adrenoceptor ([3H]raulwolscine)
Conditions: [3H]raulwolscine 1 nM, 60 minutes at 25° C.; read-out: h-α2C pIC50 (converted)
Method: as §1, §2, §3, §4

| SMILES | IC50 |
| --- | --- |
| O=C1c2ccccc2C(=O)N1CC#CCn1ccnc(NC2CCN(Cc3ccc4ccccc4n3)CC2)c1=O [9-18] | 63.1 nM |
| COc1ccc(Cn2c(-c3cccc(CN4CCC(O)CC4)c3)c(Cl)nc(NC3CCN(Cc4ccc5ccccc5c4)CC3)c2=O)cc1 [8-10] | 79.4 nM |
| O=C(Cn1ccnc(NC2CCN(Cc3ccc4ccccc4c3)CC2)c1=O)N1CCN(Cc2ccccc2)CC1 [2-06] | 7.94 nM |
| NCc1ccc(Cn2ccnc(N3CCN(Cc4cccc5ccccc45)CC3)c2=O)cc1 [9-23] | 1000 nM |
| CCCNCc1ccc(-n2ccnc(NC3CCN(Cc4ccc5ccccc5c4)CC3)c2=O)cc1 [1-06] | 10 nM |
| Cn1ccnc1CN1CCc2ccc(-n3ccnc(NC4CCN(Cc5ccc6ccccc6c5)CC4)c3=O)cc2C1 [6-15] | 3.98 nM |
| COc1ccc(Cn2c(-c3cccc(CN4CCCCC4)c3)c(Cl)nc(NC3CCN(Cc4ccc5ccccc5c4)CC3)c2=O)cc1 [8-09] | 50.1 nM |
| CCCCN(Cc1ccccc1)C(=O)Cn1ccnc(NC2CCN(Cc3ccc4ccccc4c3)CC2)c1=O [1-18] | 39.8 nM |
| CC(C)(C)OC(=O)NCc1ccc(Cn2ccnc(N3CCN(Cc4cccc5ccccc45)CC3)c2=O)cc1 [9-25] | 398 nM |
| CCCC(=O)Nc1cccc(-n2ccnc(NC3CCN(Cc4ccc5ccccc5c4)CC3)c2=O)c1 [1-23] | 10 nM |
| CC(C)(C)OC(=O)NCCCn1ccnc(NC2CCN(Cc3ccc4ccccc4c3)CC2)c1=O [1-32] | 12.6 nM |
| O=C(CCn1ccnc(NC2CCN(Cc3ccc4ncccc4c3)CC2)c1=O)c1ccccc1 [9-05] | 794 nM |
| O=c1c(NC2CCN(Cc3ccc4ccccc4c3)CC2)nccn1-c1ccc2[nH]ccc2c1 [6-02] | 31.6 nM |
| COCCN(C)Cc1ccc(-n2ccnc(NC3CCN(Cc4ccc5ccccc5c4)CC3)c2=O)cc1 [1-21] | 15.8 nM |
| O=C(Cn1ccnc(NC2CCN(Cc3ccc4ccccc4c3)CC2)c1=O)NCC(c1ccccc1)c1ccccc1 [1-19] | 63.1 nM |
| COC(=O)CN(C)Cc1ccc(-n2ccnc(NC3CCN(Cc4ccc5ccccc5c4)CC3)c2=O)cc1 [1-36] | 50.1 nM |

Biological target: T3, 5HT-transporter (Homo sapiens, UniProt P31645)
T3 construct: Human platelet membranes (Oceanix Biosciences Corporation, Hanover, Md., USA) were thawed; tissue Oceanix Biosciences Corporation, Hanover, Md., USA; host or cells: human platelet membranes
Experiment: Binding experiment for the 5HT-transporter ([3H]paroxetine, human platelet membranes)
Conditions: [3H]paroxetine 0.5 nM, 60 min at 25° C., read-out: h-5HTT pIC50 (converted)
Method: as §1
Human platelet membranes (Oceanix Biosciences Corporation, Hanover, Md., USA) were thawed, diluted in buffer (Tris-HCl 50 mM, 120 mM NaCl and 5 mM KCl) and quickly (max 3 s) homogenised with an Ultraturrax homogenizer. […] Incubation was stopped by rapid filtration of the incubation mixture over GF/B filters, pre-wetted with 0.1% polyethyleneamine, using a Filtermate196 harvester (Packard, Meriden, Conn.). Filters were rinsed extensively with ice-cold buffer and radioactivity on the filters was counted in a Topcount liquid scintillation counter (Packard, Meriden, Conn.). Data were expressed as cpm. Imipramine (at 1 μM final concentration) was used to determine the non-specific binding.
as §4

T3 sequence (P31645 whole entry): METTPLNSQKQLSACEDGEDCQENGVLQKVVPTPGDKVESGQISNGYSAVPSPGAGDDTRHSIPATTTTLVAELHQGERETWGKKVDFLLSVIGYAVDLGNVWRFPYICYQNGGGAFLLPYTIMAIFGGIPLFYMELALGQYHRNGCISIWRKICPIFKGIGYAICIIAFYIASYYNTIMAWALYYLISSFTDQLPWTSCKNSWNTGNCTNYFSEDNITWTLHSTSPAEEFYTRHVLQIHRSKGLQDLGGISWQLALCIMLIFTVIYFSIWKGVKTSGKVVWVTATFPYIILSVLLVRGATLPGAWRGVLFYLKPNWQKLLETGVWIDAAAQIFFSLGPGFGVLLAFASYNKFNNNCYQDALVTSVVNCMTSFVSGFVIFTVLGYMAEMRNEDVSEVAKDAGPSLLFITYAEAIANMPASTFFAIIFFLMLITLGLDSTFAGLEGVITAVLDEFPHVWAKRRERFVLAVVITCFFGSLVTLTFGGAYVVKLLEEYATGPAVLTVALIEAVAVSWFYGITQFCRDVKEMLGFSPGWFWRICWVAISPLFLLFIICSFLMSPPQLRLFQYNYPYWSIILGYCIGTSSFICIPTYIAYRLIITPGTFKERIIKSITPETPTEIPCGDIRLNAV

| SMILES | IC50 |
| --- | --- |
| O=C1c2ccccc2C(=O)N1CC#CCn1ccnc(NC2CCN(Cc3ccc4ccccc4n3)CC2)c1=O [9-18] | 1000 nM |
| COc1ccc(Cn2c(-c3cccc(CN4CCC(O)CC4)c3)c(Cl)nc(NC3CCN(Cc4ccc5ccccc5c4)CC3)c2=O)cc1 [8-10] | 31.6 nM |
| O=C(Cn1ccnc(NC2CCN(Cc3ccc4ccccc4c3)CC2)c1=O)N1CCN(Cc2ccccc2)CC1 [2-06] | 316 nM |
| NCc1ccc(Cn2ccnc(N3CCN(Cc4cccc5ccccc45)CC3)c2=O)cc1 [9-23] | 1260 nM |
| CCCNCc1ccc(-n2ccnc(NC3CCN(Cc4ccc5ccccc5c4)CC3)c2=O)cc1 [1-06] | 20 nM |
| Cn1ccnc1CN1CCc2ccc(-n3ccnc(NC4CCN(Cc5ccc6ccccc6c5)CC4)c3=O)cc2C1 [6-15] | 10 nM |
| COc1ccc(Cn2c(-c3cccc(CN4CCCCC4)c3)c(Cl)nc(NC3CCN(Cc4ccc5ccccc5c4)CC3)c2=O)cc1 [8-09] | 50.1 nM |
| CCCCN(Cc1ccccc1)C(=O)Cn1ccnc(NC2CCN(Cc3ccc4ccccc4c3)CC2)c1=O [1-18] | 79.4 nM |
| CC(C)(C)OC(=O)NCc1ccc(Cn2ccnc(N3CCN(Cc4cccc5ccccc45)CC3)c2=O)cc1 [9-25] | 1260 nM |
| CCCC(=O)Nc1cccc(-n2ccnc(NC3CCN(Cc4ccc5ccccc5c4)CC3)c2=O)c1 [1-23] | 6.31 nM |
| CC(C)(C)OC(=O)NCCCn1ccnc(NC2CCN(Cc3ccc4ccccc4c3)CC2)c1=O [1-32] | 31.6 nM |
| O=C(CCn1ccnc(NC2CCN(Cc3ccc4ncccc4c3)CC2)c1=O)c1ccccc1 [9-05] | 25.1 nM |
| O=c1c(NC2CCN(Cc3ccc4ccccc4c3)CC2)nccn1-c1ccc2[nH]ccc2c1 [6-02] | 25.1 nM |
| COCCN(C)Cc1ccc(-n2ccnc(NC3CCN(Cc4ccc5ccccc5c4)CC3)c2=O)cc1 [1-21] | 15.8 nM |
| O=C(Cn1ccnc(NC2CCN(Cc3ccc4ccccc4c3)CC2)c1=O)NCC(c1ccccc1)c1ccccc1 [1-19] | 79.4 nM |
| COC(=O)CN(C)Cc1ccc(-n2ccnc(NC3CCN(Cc4ccc5ccccc5c4)CC3)c2=O)cc1 [1-36] | 158 nM |
